The subject of test [1] is human LDLs. Kind of test: Modification of the LDLs by endothelial cells (MDA formation). It counts as cell-based. The note with it: for ability to protect human LDLs compared with probucol or vitamin E, endothelial cells: modifications induced by endothelial cells; for times more powerful than probucol (endothelial cells): test using endothelial cells; for IC50: oxidation by rabbit aorta endothelial cells, 24 hours, read-out: IC50 EC (inhibition of lipid peroxidation of human LDLs, MDA production). The protocol:
Human LDLs are incubated for 24 hours in the presence of rabbit aorta endothelial cells (line RECL B4 supplied by Professor Steinberg, USA) and in the absence or presence of the test compounds (10^-7 M to 10^-4 M).
After incubation, the peroxidation of the LDLs is evaluated by electrophoresis on agar gel and by the formation of one of the products of lipid peroxidation: malonic dialdehyde (MDA) (Steinbrecher U.P., Parthasarathy S, Leake D. S., Witztum J. L., and Steinberg D., Proc. Nat. Acad. Sci. USA 81. 3883-3887, 1984).
The activity of the test compounds is evaluated by calculating the concentrations that reduce the production of MDA by 50% (IC50) compared with the control experiments carried out in the absence of test compound.
(§1) Table A lists the IC50 values, which indicate the capacity to inhibit the lipid peroxidation of human LDLs, obtained with a sample of the compounds of the invention and of the reference compounds probucol and vitamin E, in two tests causing the development of the oxidation of the LDLs: by copper sulphate (Cu^2+) or by endothelial cells (EC).

Test [2] deals with human LDLs. Briefly: Modification of the LDLs by copper sulphate (MDA formation). The note with it: for ability to protect human LDLs compared with probucol or vitamin E, copper sulphate: modifications induced by copper sulphate; for IC50: oxidation by copper sulphate, 24 hours, read-out: IC50 Cu^2+ (inhibition of lipid peroxidation of human LDLs, MDA production). It counts as biochemical. The protocol: Human LDLs are incubated for 24 hours in the presence of copper sulphate (5×10^-5 M or 5×10^-6 M) and in the absence or presence of the test compounds (10^-7 M to 10^-4 M).
After incubation, the peroxidation of the LDLs is evaluated by electrophoresis on agar gel and by the formation of one of the products of lipid peroxidation: malonic dialdehyde (MDA) (Parthasarathy S., Young S. G., Witztum J. L., Pittman R. C., and Steinberg D.; J. Clin. Invest. 77, 641-644, 1986).
The activity of the test compounds is evaluated by calculating the concentrations that reduce the production of MDA by 50% (IC50) compared with control experiments carried out in the absence of test compound.
as §1

In test [3] the test system is LDLs of the Watanabe rabbits. Kind of test: Ex vivo copper sulphate oxidation of LDLs from orally treated Watanabe rabbits (MDA production). Format: in vivo. To be noted: for MDA production: 3 days; for dose from which peroxidation of the LDLs is inhibited: oral, peroxidation induced by copper sulphate. The protocol: Watanabe rabbits ([…] hyperlipidaemic rabbits) are used that range in weight from 3 kg to 5 kg. The animals are treated orally with the carrier of the test compounds (control group) or with the test compounds at doses of 10, 50 and 250 mg/kg/day for 3 days.
When the treatment is complete, the LDLs of the animals are prepared by ultracentrifugation and subjected to oxidation with copper sulphate (5×10^-6 M). The lipid peroxidation of the LDLs is evaluated after various periods of incubation with copper sulphate (from 2 to 24 hours) by measuring the formation of MDA.
Table C lists the MDA production values according to the incubation period with copper sulphate of those LDLs originating from the control animals and those originating from the animals treated with the compounds of Examples 1, 3 and 31 at different doses or with probucol.

For the next test, the system named is cardiac cells. Kind of test: Oxidative necrosis of cardiac cells induced by hypoxanthine/xanthine oxidase. Format: cell-based, new-born rats. The note with it: for effect on oxidative necrosis of cardiac cells compared with reference compounds: 10^-6 M and 10^-5 M; for activity at 10 µM / activity at 1 µM / activity at 0.1 µM / index of necrosis of cardiac cells: control = 100, means ± sem; for activity at 10 µM / activity at 1 µM / activity at 0.1 µM: read-out: index of necrosis of cardiac cells; for inhibition at 10 µM / inhibition at 1 µM: Cardiomyocyte, read-out: reduction of oxidative necrosis of cardiomyocytes; for index of necrosis of cardiac cells: 240 min. The protocol: Cardiac cells of new-born rats are used between the 5th and 6th days after placing in a culture. Oxidative necrosis is induced by the enzymatic system hypoxanthine (HX, 1 mM) and xanthine oxidase (XO, 10 mU/ml), which produces free radicals. The necrosis is evaluated 4 hours after the addition of XO/HX by the spectrophotometric measurement of the cytosolic α-hydroxybutyrate dehydrogenase (α-HBDH) activity liberated in the supernatant. Two reference molecules (probucol, vitamin E) and 3 molecules representative of the present invention (corresponding to Examples 1, 3 and 4) were tested. The cells are treated with the molecules 16 hours and 1 hour before the beginning of the experiment after renewing the medium. At the beginning of the experiment, the treatment is carried out one last time.
Table B lists the indices of the necrosis of cardiac cells induced by the system hypoxanthine/xanthine oxidase on its own or in the presence of increasing concentrations of the compounds of the invention or of the reference compounds: probucol and vitamin E.
The necrosis index 100 corresponds to a liberation of 43.6±1.0% in 4 hours of the cytosolic content of α-HBDH in the supernatant.
The results are expressed in the form of means ± sem (4≤n≤5, 3 repetitions per experiment).

Where [4] appears, read: 250 mg/kg/day oral, 2 hours incubation with copper sulphate.
[5] abbreviates: 250 mg/kg/day oral, 4 hours incubation with copper sulphate.
The mark [6] stands for this setting: 250 mg/kg/day oral, 6 hours incubation with copper sulphate.
Setting [7] is: 250 mg/kg/day oral, 8 hours incubation with copper sulphate.
[8] abbreviates: 250 mg/kg/day oral, 24 hours incubation with copper sulphate.
Setting [9] is: Rattus norvegicus, 4 h, 10^-5 M.
Setting [10] is: Rattus norvegicus, 4 h, 10^-6 M.
Setting [11] is: Rattus norvegicus, 4 h, 10^-7 M.

Regarding `CC(C)(C)c1cc(SCC(O)CN2CCC3(CC2)CNC(=O)O3)cc(C(C)(C)C)c1O` (racemic) [Example 1, (R,S)-8-[3-(3,5-di-tert.-butyl-4-hydroxyphenylthio)-2-hydroxypropyl]-1-oxa-2-oxo-3,8-diazaspiro[4.5]decane], the “ability to protect human LDLs compared with probucol or vitamin E, endothelial cells” value in the test with human LDLs [1] was “greater ability”. Moreover, in the test on human LDLs [1], the “times more powerful than probucol (endothelial cells)” value (“times more powerful than probucol” for short) is on record as 100 times. The “ability to protect human LDLs compared with probucol or vitamin E, copper sulphate” value with human LDLs [2] was “greater ability”. Further, the MDA production in test [3] (setting [4]) turned out to be 0.2 nM/mg proteins; in test [3] (setting [5]) it was 1.27 nM/mg proteins; in test [3] (setting [6]), 0 nM/mg proteins; in test [3] (setting [7]) it was 0 nM/mg proteins; in test [3] (setting [8]) it was 1.02 nM/mg proteins. In addition, the “dose from which peroxidation of the LDLs is inhibited” value in test [3] is ≥ 50 mg/kg/day. Besides, in the test on cardiac cells, the “effect on oxidative necrosis of cardiac cells compared with reference compounds” value was “distinctly superior to the reference compounds”. In the test with cardiac cells (setting [9]), the activity at 10 µM is 3.8 ± 1.9%. Moreover, the activity at 1 µM in the test with cardiac cells (setting [10]) amounted to 19.1 ± 7.3%. For the same compound, the activity at 0.1 µM in the test on cardiac cells (setting [11]) came to 42.8 ± 11.3%. In the test with cardiac cells (Rattus norvegicus, 4 h, starting from 10^-7 M, read-out: protective effect on oxidative necrosis of cardiac cells), the inhibition at 0.1 µM is > 50%. Further, the inhibition at 10 µM with cardiac cells (setting [9]) was > 95%. Besides, in the test with cardiac cells (setting [10]), the inhibition at 1 µM was > 80%.

For the compound `CC(C)(C)c1cc(SCCCCCN2CCC3(CC2)CNC(=O)O3)cc(C(C)(C)C)c1O` [Example 4], in the test on human LDLs [1], the “ability to protect human LDLs compared with probucol or vitamin E, endothelial cells” value is given as “greater ability”; the IC50 was 20 nM; the “times more powerful than probucol” value came out at 100 times. In the test with human LDLs [2], the “ability to protect human LDLs compared with probucol or vitamin E, copper sulphate” value is listed as “greater ability” and the IC50 amounted to 800 nM. In the test with cardiac cells, the “effect on oxidative necrosis of cardiac cells compared with reference compounds” value was “distinctly superior to the reference compounds”. In the test on cardiac cells (setting [9]), the activity at 10 µM stood at 2.6 ± 0.7% and the inhibition at 10 µM was > 95%. Besides, in the test with cardiac cells (setting [10]), the activity at 1 µM amounted to 2.1 ± 1% and the inhibition at 1 µM was > 80%. Besides, the activity at 0.1 µM in the test on cardiac cells (setting [11]) came to 79.1 ± 8%.

`CC(C)(C)c1cc(OCCCCCN2CCC3(CC2)CNC(=O)O3)cc(C(C)(C)C)c1O` [Example 5]: in the test on human LDLs [1], the “ability to protect human LDLs compared with probucol or vitamin E, endothelial cells” value is reported as “greater ability” and the concentration for half-maximal inhibition (IC50) was determined as 800 nM. In the test on human LDLs [2], the “ability to protect human LDLs compared with probucol or vitamin E, copper sulphate” value is reported as “greater ability” and the IC50 worked out at 700 nM.

As to `CC(C)(C)c1cc(OCCCN2CCC3(CC2)CNC(=O)O3)cc(C(C)(C)C)c1O` [Example 6], in the test on human LDLs [1], the “ability to protect human LDLs compared with probucol or vitamin E, endothelial cells” value was “greater ability” and the IC50 was found to be 300 nM. In the test on human LDLs [2], the “ability to protect human LDLs compared with probucol or vitamin E, copper sulphate” value is “greater ability” and the concentration for half-maximal inhibition (IC50) came out at 300 nM.

In the case of `CC(C)(C)c1cc(OCC(O)CN2CCC3(CC2)CNC(=O)O3)cc(C(C)(C)C)c1O` (stereo not shown) [Example 7], in the test on human LDLs [2], the IC50 was found to be 2000 nM.

`Cc1cc(OCCCCCN2CCC3(CC2)CNC(=O)O3)c(C)c(C)c1O` [Example 30]: the 50% inhibitory concentration (IC50) in the test on human LDLs [2] was determined as 300 nM.

In the case of `CC(C)(CCN1CCC2(CC1)CNC(=O)O2)Sc1cc(C(C)(C)C)c(O)c(C(C)(C)C)c1` [Example 31], the “ability to protect human LDLs compared with probucol or vitamin E, endothelial cells” value in the test with human LDLs [1] is “greater ability”. For the same compound, the IC50 in the test with human LDLs [1] amounted to 20 nM; in the test with human LDLs [2] it was 800 nM. Besides, the “ability to protect human LDLs compared with probucol or vitamin E, copper sulphate” value in the test on human LDLs [2] is on record as “greater ability”. Further, the MDA production in test [3] (50 mg/kg/day oral, 2 hours incubation with copper sulphate) turned out to be 0.33 nM/mg proteins; in test [3] (50 mg/kg/day oral, 4 hours incubation with copper sulphate) it was 0.72 nM/mg proteins; in test [3] (50 mg/kg/day oral, 6 hours incubation with copper sulphate), 1.03 nM/mg proteins; in test [3] (50 mg/kg/day oral, 8 hours incubation with copper sulphate), 1.04 nM/mg proteins; in test [3] (50 mg/kg/day oral, 24 hours incubation with copper sulphate), 3.16 nM/mg proteins; in test [3] (setting [4]), 0.19 nM/mg proteins. Besides, the MDA production in test [3] (setting [5]) is 0.51 nM/mg proteins; in test [3] (setting [6]) it was 0.16 nM/mg proteins; in test [3] (setting [7]), 0.71 nM/mg proteins; in test [3] (setting [8]) it was 0.99 nM/mg proteins. Also, the “dose from which peroxidation of the LDLs is inhibited” value in test [3] was ≥ 50 mg/kg/day.

On to `Cc1cc(SCC(O)CN2CCC3(CC2)CNC(=O)O3)c(C)c(C)c1O` (stereo not shown) [Example 32], for which, in the test on human LDLs [1], the “times more powerful than probucol” value is recorded as 100 times. Moreover, the IC50 with human LDLs [2] is 300 nM.

As for `Cc1c(C)c2c(c(C)c1O)CCC(C)(CCN1CCC3(CC1)CNC(=O)O3)O2` (stereo not shown) [Example 33], the IC50 in the test with human LDLs [2] worked out at 300 nM.

In the case of `Cc1c(C)c2c(c(C)c1O)CCC(C)(CCCN1CCC3(CC1)CNC(=O)O3)O2` (stereo not shown) [Example 34], the IC50 in the test with human LDLs [2] stood at 300 nM.

vitamin E [reference compound]: the values for the IC50 with human LDLs [1] and in the test with human LDLs [2] were 4000 nM and > 100000 nM, respectively. Moreover, the “index of necrosis of cardiac cells” value with cardiac cells (10^-5 M, 10 µM) came to 61.1 ± 2.5; in the test on cardiac cells (10^-6 M, 1 µM) it was 79.0 ± 7.4; in the test with cardiac cells (10^-7 M, 0.1 µM) it was 83.5 ± 8.0.

One may read the IC50 as the concentration that inhibits the measured activity by half.
